From patent publication US6737383B1, “Herbicidal oxadiazolidines” (priority 1999, dated 2004)

Key:
winter barley = assay: Test E winter barley; assay type: in vivo, Hordeum vulgare; details: Preemergence
winter wheat [1] = assay: Test E winter wheat; assay type: in vivo, Triticum aestivum; details: Preemergence
Italian ryegrass = assay: Test E Italian ryegrass; assay type: in vivo, Lolium multiflorum; details: Preemergence
blackgrass = assay: Test E blackgrass; assay type: in vivo, Alopecurus myosuroides; details: Preemergence
purple nutsedge = assay: Test B pre/postemergence purple nutsedge; assay type: in vivo, Cyperus rotundus
Outline: (§1)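 Herbicidal effect was estimated by eye on a ten-point control scale after plants spent twelve to sixteen days in a greenhouse following soil or foliar treatment. Foliar sprays targeted plants at one to four leaves; all doses were formulated in a non-phytotoxic solvent with surfactant.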

wild oat = assay: Test E wild oat; assay type: in vivo, Avena fatua; details: Preemergence; Rate 1000 g/ha; 0 to 100 scale where 0 is no effect and 100 is complete control
duck salad = assay: Test B flood test duck salad; assay type: in vivo, Heteranthera limosa
Outline: (§2)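 Each value is a visual injury score relative to controls, with 10 meaning complete control and 0 no effect. Evaluation took place twelve to sixteen days after the 2-leaf-stage plants were treated and kept in the greenhouse.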

crabgrass = assay: Test B pre/postemergence crabgrass; assay type: in vivo, Digitaria sanguinalis
Outline: as §1

bamyardgrass = assay: Test B flood test barnyardgrass; assay type: in vivo, Echinochloa crus-galli
Outline: as §2

green foxtail = assay: Test E green foxtail; assay type: in vivo, Setaria viridis; details: Preemergence
winter wheat [2] = assay: Test E winter wheat; assay type: in vivo, Triticum aestivum; details: Postemergence
Outline: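 For postemergence, plants at the 1- to 4-leaf stage, in a 60:40 mix of sandy loam and potting mix, treated with compound formulated in a surfactant-containing non-phytotoxic solvent. Visual assessment versus untreated controls followed roughly 21–28 days in the greenhouse.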

[3] = Rate 500 g/ha, 0 to 100 scale where 0 is no effect and 100 is complete control
[4] = Rate 1000 g/ha, 0 to 100 scale where 0 is no effect and 100 is complete control
[5] = Postemergence, Rate 62 g/ha, scale 0 to 10, 0 is no effect, 10 is complete control
[6] = Postemergence, Rate 250 g/ha, scale 0 to 10, 0 no effect, 10 complete control
[7] = Preemergence, Rate 62 g/ha, scale 0 to 10 (0 no effect, 10 complete control)
[8] = Preemergence, Rate 125 g/ha, scale 0 to 10 (0 no effect, 10 complete control)
[9] = Preemergence, Rate 250 g/ha, scale of 0 to 10 where 0 is no effect and 10 is complete control
[10] = Preemergence, Rate 500 g/ha, scale 0 (no effect) to 10 (complete control)
[11] = Rate 125 g/ha, Postemergence, scale 0 to 10, 0 no effect, 10 complete control
[12] = Rate 500 g/ha, Postemergence, scale 0 to 10, 0 no effect, 10 complete control
[13] = Rate 125 g/ha, Postemergence section (flood test species), scale 0 to 10, 0 no effect, 10 complete control
[14] = Rate 500 g/ha, listed under Postemergence (flood test species), scale 0 to 10, 0 no effect, 10 complete control
[15] = flood test, listed under Postemergence, Rate 250 g/ha, scale 0 to 10, 0 no effect, 10 complete control

Cc1nn(C)c(C)c1-n1c(=O)on(C(=O)N(c2ccc(F)cc2)C(C)C)c1=O [Compound 75]
Plant response rating, Barley (winter) (winter barley; Rate 250 g/ha, 0 to 100 scale): 10
Plant response rating, Barley (winter) (winter barley; [3]): 20
Plant response rating, Barley (winter) (winter barley; [4]): 60
Plant response rating, Wheat (winter) (winter wheat [1]; Rate 250 g/ha, 0 to 100 scale): 10
Plant response rating, Wheat (winter) (winter wheat [1]; [3]): 20
Plant response rating, Wheat (winter) (winter wheat [1]; [4]): 65
Plant response rating, I. Ryegrass (Italian ryegrass; Rate 250 g/ha, 0 to 100 scale): 20
Plant response rating, I. Ryegrass (Italian ryegrass; [3]): 30
Plant response rating, I. Ryegrass (Italian ryegrass; [4]): 50
Plant response rating, Blackgrass (blackgrass; Rate 250 g/ha, 0 to 100 scale): 20
Plant response rating, Blackgrass (blackgrass; [3]): 40
Plant response rating, Blackgrass (blackgrass; [4]): 85
Nutsedge plant response rating (purple nutsedge; [5]): 0
Nutsedge plant response rating (purple nutsedge; [6]): 0
Nutsedge plant response rating (purple nutsedge; [7]): 0
Plant response rating, Nutsedge (purple nutsedge; [8]): 0
Plant response rating, Nutsedge (purple nutsedge; [9]): 0
Nutsedge plant response rating (purple nutsedge; [10]): 0
Nutsedge plant response rating (purple nutsedge; [11]): 0
Nutsedge plant response rating (purple nutsedge; [12]): 0
Plant response rating, Wild oat (wild oat): 10
Ducksalad plant response rating (duck salad; [5]): 0
Ducksalad plant response rating (duck salad; [13]): 0
Ducksalad plant response rating (duck salad; [14]): 0
Ducksalad plant response rating (duck salad; [15]): 0
Crabgrass plant response rating (crabgrass; [5]): 0
Crabgrass plant response rating (crabgrass; [6]): 9
Crabgrass plant response rating (crabgrass; [7]): 3
Plant response rating, Crabgrass (crabgrass; [8]): 8
Plant response rating, Crabgrass (crabgrass; [9]): 10
Crabgrass plant response rating (crabgrass; [10]): 10
Crabgrass plant response rating (crabgrass; [11]): 2
Crabgrass plant response rating (crabgrass; [12]): 9
Barnyardgrass plant response rating (bamyardgrass; [5]): 0
Barnyardgrass plant response rating (bamyardgrass; [13]): 0
Barnyardgrass plant response rating (bamyardgrass; [14]): 0
Barnyardgrass plant response rating (bamyardgrass; [15]): 0
Plant response rating, Green foxtail (green foxtail; Rate 250 g/ha, 0 to 100 scale): 60
Plant response rating, Green foxtail (green foxtail; [3]): 60
Plant response rating, Green foxtail (green foxtail; [4]): 60
Plant response rating, Wheat (winter) (winter wheat [2]; Rate 250 g/ha, 0 to 100 scale (0 no effect, 100 complete control)): 60
Plant response rating, Wheat (winter) (winter wheat [2]; Rate 1000 g/ha, 0 to 100 scale, 0 is no effect and 100 is complete control): 70
Plant response rating, Wheat (winter) (winter wheat [2]; Rate 500 g/ha, 0 to 100 scale, 0 no effect, 100 complete control): 75
